Measurements published in PubChem BioAssay AID2060887 (Molecular Pharmacology Branch, DTP, NCI, 2025).

System: 782815-120-R-J1-PDC complex spheroid viability
Assay: Anticancer human tumor 782815-120-R-J1-PDC patient-derived colon adenocarcinoma cell line growth inhibition [RAS]
Details: for IC50: curve of first compound; for viability, T/C: stronger effect = lower value
Method in brief: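 Multi-cell-type spheroids: tumor cells plus HUVEC endothelial cells and mesenchymal stem cells. RAS-pathway inhibitors were combined with targeted agents, each dosed in half-log steps down from clinical Cmax, or from 10 microM when Cmax was unknown.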
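Note: spheroids exposed to compounds for 7 days before reading.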
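Throughout, for viability, T/C: 100% = DMSO vehicle control viability.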

CC1(C)CCC(Nc2ncc(C(F)(F)F)c(-c3c[nH]c4c(P(C)(C)=O)c(C#N)ccc34)n2)CN1 (centres undefined) + CCn1c(-c2cccnc2C(C)OC)c2c3cc(ccc31)N1CCOC(CC(NC(=O)C(C(C)C)N(C)C(=O)C3(F)CCN(C(=O)C#CC(C)(C)N(C)C)CC3)C(=O)N3CCCC(N3)C(=O)OCC(C)(C)C2)C1
IC50 (second compound 0.000949 µM): 42.5 nM
IC50 (second compound 0.003 µM): 43.5 nM
IC50 (second compound 0.00949 µM): 67.2 nM
IC50 (second compound 0.03 µM): 56.3 nM
IC50 (second compound 0.0949 µM): 62.4 nM
IC50 (second compound 0.3 µM): 30.1 nM
viability, T/C (second compound 0.000949 µM, first compound 0.000949 µM): 105%
viability, T/C (second compound 0.000949 µM, first compound 0.003 µM): 93.1%
viability, T/C (second compound 0.000949 µM, first compound 0.00949 µM): 68.5%
viability, T/C (second compound 0.000949 µM, first compound 0.03 µM): 51%
viability, T/C (second compound 0.000949 µM, first compound 0.0949 µM): 49.8%
viability, T/C (second compound 0.000949 µM, first compound 0.3 µM): 41.2%
viability, T/C (second compound 0.003 µM, first compound 0.000949 µM): 91.5%
viability, T/C (second compound 0.003 µM, first compound 0.003 µM): 89.2%
viability, T/C (second compound 0.003 µM, first compound 0.00949 µM): 81.8%
viability, T/C (second compound 0.003 µM, first compound 0.03 µM): 52.1%
viability, T/C (second compound 0.003 µM, first compound 0.0949 µM): 45.8%
viability, T/C (second compound 0.003 µM, first compound 0.3 µM): 44.3%
viability, T/C (second compound 0.00949 µM, first compound 0.000949 µM): 90.5%
viability, T/C (second compound 0.00949 µM, first compound 0.003 µM): 93.7%
viability, T/C (second compound 0.00949 µM, first compound 0.00949 µM): 83.2%
viability, T/C (second compound 0.00949 µM, first compound 0.03 µM): 54.1%
viability, T/C (second compound 0.00949 µM, first compound 0.0949 µM): 51.6%
viability, T/C (second compound 0.00949 µM, first compound 0.3 µM): 44.6%
viability, T/C (second compound 0.03 µM, first compound 0.000949 µM): 86.1%
viability, T/C (second compound 0.03 µM, first compound 0.003 µM): 88.8%
viability, T/C (second compound 0.03 µM, first compound 0.00949 µM): 78.4%
viability, T/C (second compound 0.03 µM, first compound 0.03 µM): 54.9%
viability, T/C (second compound 0.03 µM, first compound 0.0949 µM): 44.1%
viability, T/C (second compound 0.03 µM, first compound 0.3 µM): 47.6%
viability, T/C (second compound 0.0949 µM, first compound 0.000949 µM): 107%
viability, T/C (second compound 0.0949 µM, first compound 0.003 µM): 83.6%
viability, T/C (second compound 0.0949 µM, first compound 0.00949 µM): 70.3%
viability, T/C (second compound 0.0949 µM, first compound 0.03 µM): 56.8%
viability, T/C (second compound 0.0949 µM, first compound 0.0949 µM): 45.5%
viability, T/C (second compound 0.0949 µM, first compound 0.3 µM): 39.9%
viability, T/C (second compound 0.3 µM, first compound 0.000949 µM): 83.9%
viability, T/C (second compound 0.3 µM, first compound 0.003 µM): 86.6%
viability, T/C (second compound 0.3 µM, first compound 0.00949 µM): 65%
viability, T/C (second compound 0.3 µM, first compound 0.03 µM): 52.2%
viability, T/C (second compound 0.3 µM, first compound 0.0949 µM): 39.4%
viability, T/C (second compound 0.3 µM, first compound 0.3 µM): 36.3%

Nc1ccn(C2OC(CO)C(O)C2(F)F)c(=O)n1 (centres undefined) + CCn1c(-c2cc(N3CCN(C)CC3)cnc2C(C)OC)c2c3cc(ccc31)-c1csc(n1)CC(NC(=O)C1CC1C)C(=O)N1CCCC(N1)C(=O)OCC(C)(C)C2
IC50 (second compound 0.000949 µM): 20.7 nM
IC50 (second compound 0.003 µM): 12.7 nM
IC50 (second compound 0.00949 µM): < 3.16 nM
IC50 (second compound 0.03 µM): < 3.16 nM
IC50 (second compound 0.0949 µM): < 3.16 nM
IC50 (second compound 0.3 µM): < 3.16 nM
viability, T/C (second compound 0.000949 µM, first compound 0.00316 µM): 74%
viability, T/C (second compound 0.000949 µM, first compound 0.01 µM): 53.4%
viability, T/C (second compound 0.000949 µM, first compound 0.0316 µM): 48.6%
viability, T/C (second compound 0.000949 µM, first compound 0.1 µM): 35.9%
viability, T/C (second compound 0.000949 µM, first compound 0.316 µM): 28.4%
viability, T/C (second compound 0.000949 µM, first compound 1 µM): 23.6%
viability, T/C (second compound 0.003 µM, first compound 0.00316 µM): 60.9%
viability, T/C (second compound 0.003 µM, first compound 0.01 µM): 51.7%
viability, T/C (second compound 0.003 µM, first compound 0.0316 µM): 40%
viability, T/C (second compound 0.003 µM, first compound 0.1 µM): 25%
viability, T/C (second compound 0.003 µM, first compound 0.316 µM): 25.5%
viability, T/C (second compound 0.003 µM, first compound 1 µM): 23.7%
viability, T/C (second compound 0.00949 µM, first compound 0.00316 µM): 30.8%
viability, T/C (second compound 0.00949 µM, first compound 0.01 µM): 33.3%
viability, T/C (second compound 0.00949 µM, first compound 0.0316 µM): 23.1%
viability, T/C (second compound 0.00949 µM, first compound 0.1 µM): 23%
viability, T/C (second compound 0.00949 µM, first compound 0.316 µM): 17.1%
viability, T/C (second compound 0.00949 µM, first compound 1 µM): 18%
viability, T/C (second compound 0.03 µM, first compound 0.00316 µM): 20.1%
viability, T/C (second compound 0.03 µM, first compound 0.01 µM): 21.2%
viability, T/C (second compound 0.03 µM, first compound 0.0316 µM): 15.7%
viability, T/C (second compound 0.03 µM, first compound 0.1 µM): 13.3%
viability, T/C (second compound 0.03 µM, first compound 0.316 µM): 13.7%
viability, T/C (second compound 0.03 µM, first compound 1 µM): 14.1%
viability, T/C (second compound 0.0949 µM, first compound 0.00316 µM): 15.7%
viability, T/C (second compound 0.0949 µM, first compound 0.01 µM): 15.9%
viability, T/C (second compound 0.0949 µM, first compound 0.0316 µM): 13.3%
viability, T/C (second compound 0.0949 µM, first compound 0.1 µM): 11.6%
viability, T/C (second compound 0.0949 µM, first compound 0.316 µM): 13.2%
viability, T/C (second compound 0.0949 µM, first compound 1 µM): 10.7%
viability, T/C (second compound 0.3 µM, first compound 0.00316 µM): 15.7%
viability, T/C (second compound 0.3 µM, first compound 0.01 µM): 16.1%
viability, T/C (second compound 0.3 µM, first compound 0.0316 µM): 16.1%
viability, T/C (second compound 0.3 µM, first compound 0.1 µM): 13.2%
viability, T/C (second compound 0.3 µM, first compound 0.316 µM): 12.6%
viability, T/C (second compound 0.3 µM, first compound 1 µM): 10.2%
